# Laboratory results reported in US20090208747A1, “Novel Crystalline Methods and Novel Crystalline and Amorphous forms of Halogenated Sugars” (V.B. MEDICARE PVT. LTD, priority 2006, published 2009).
# Read-outs that look alike come from different tables or passages of the source.
# Assays:
# [1] = Stability testing as per ICH Guideline Q1A(R2), storage stability; format: physicochemical
# Text: Stability testing was done as per ICH Harmonised Tripaertite Guideline Stability Testing of New drug substances and Products Q1A(R2) issued by International Conference on Hamonization of technical requirements for registration of pharmaceuticals for human use and recommended for adoption at Step 4 of the ICH Process on 6 Feb.
# Details are given on table nos 1 to 4 given in the following: […]
# [2] = Accelerated stability test, sealed containers incubated at 50° C.; format: physicochemical; conditions: sealed container; for Assay (%) / PH: listed as Crystalline TGS crystallized from butanol:methanol mixture
# Description: For extrapolating potential storage stability beyond one year, an accelerated storage stability test was conducted. In this test, crystalline TGS of small and large mean particle size was incubated at 50° C. in sealed containers. Percent assay and pH were tested after each 24 hours for five successive days. […] A three days' stability in accelerated stability test is extrapolated by Catani et al (2005) to 8 years of storage stability at ambient temperature.
# All the three samples were taken in sealed containers and were incubated at 50° C. […]
# [3] = Analysis against JECFA specifications: solubility; format: physicochemical; conditions: in ethyl acetate
# Particle size analysis = conditions: for particle size distribution at 90%: 90% of particles below this size
# Description: The TGS crystals obtained were tested for purity and particle size.
# The solids obtained were tested for purity, particle size and X ray diffraction for the nature of solid obtained.
# [4] = 25° C. ± 2° C. 60% RH ± 5% RH, 1st month
# [5] = 25° C. ± 2° C. 60% RH ± 5% RH, 2nd month
# [6] = 25° C. ± 2° C. 60% RH ± 5% RH, 3rd month
# [7] = 25° C. ± 2° C. 60% RH ± 5% RH, 4th month
# [8] = 25° C. ± 2° C. 60% RH ± 5% RH, 5th month
# [9] = 25° C. ± 2° C. 60% RH ± 5% RH, 6th month
# [10] = 25° C. ± 2° C. 60% RH ± 5% RH, 12th month
# [11] = 25° C. ± 2° C. 60% RH ± 5% RH, 24th month
# [12] = 25° C. ± 2° C. 60% RH ± 5% RH, INITIAL
# [13] = 30° C. ± 2° C. 65% RH ± 5% RH, 1st month
# [14] = 30° C. ± 2° C. 65% RH ± 5% RH, 2nd month
# [15] = 30° C. ± 2° C. 65% RH ± 5% RH, 3rd month
# [16] = 30° C. ± 2° C. 65% RH ± 5% RH, 4th month
# [17] = 30° C. ± 2° C. 65% RH ± 5% RH, 5th month
# [18] = 30° C. ± 2° C. 65% RH ± 5% RH, 6th month
# [19] = 30° C. ± 2° C. 65% RH ± 5% RH, 12th month
# [20] = 30° C. ± 2° C. 65% RH ± 5% RH, 24th month
# [21] = 30° C. ± 2° C. 65% RH ± 5% RH, INITIAL
# [22] = 40° C. ± 2° C. 75% RH ± 5% RH, 1st month
# [23] = 40° C. ± 2° C. 75% RH ± 5% RH, 2nd month
# [24] = 40° C. ± 2° C. 75% RH ± 5% RH, 3rd month
# [25] = 40° C. ± 2° C. 75% RH ± 5% RH, 4th month
# [26] = 40° C. ± 2° C. 75% RH ± 5% RH, 5th month
# [27] = 40° C. ± 2° C. 75% RH ± 5% RH, 6th month
# [28] = 40° C. ± 2° C. 75% RH ± 5% RH, 12th month
# [29] = 40° C. ± 2° C. 75% RH ± 5% RH, 24th month
# [30] = 40° C. ± 2° C. 75% RH ± 5% RH, INITIAL
smiles,measurement,setting,value
"OC[C@H]1O[C@H](O[C@]2(CCl)O[C@H](CCl)[C@@H](O)[C@@H]2O)[C@H](O)[C@@H](O)[C@H]1Cl [Crystalline TGS small particle size, 1′-6′-Dichloro-1′-6′-DIDEOXY-β-Fructofuranasyl-4-chloro-4-deoxy-galactopyranoside]",Appearance,[1]; [4],Normal
same,Assay,[1]; [4],99.02%
same,Specific Rotation,[1]; [4],+85.99°
same,Water content,[1]; [4],0.73%
same,Appearance,[1]; [5],Normal
same,Assay,[1]; [5],99.04%
same,Specific Rotation,[1]; [5],+84.63°
same,Water content,[1]; [5],0.63%
same,Appearance,[1]; [6],Normal
same,Assay,[1]; [6],99.05%
same,Specific Rotation,[1]; [6],+85.31°
same,Water content,[1]; [6],0.22%
same,Appearance,[1]; [7],Normal
same,Specific Rotation,[1]; [7],+84.20°
same,Water content,[1]; [7],0.41%
same,Appearance,[1]; [8],Normal
same,Assay,[1]; [8],98.42%
same,Specific Rotation,[1]; [8],+87.22°
same,Water content,[1]; [8],0.17%
same,Appearance,[1]; [9],Normal
same,Assay,[1]; [9],99.07%
same,Specific Rotation,[1]; [9],+86.78°
same,Water content,[1]; [9],0.23%
same,Appearance,[1]; [10],Normal
same,Assay,[1]; [10],99.02%
same,Specific Rotation,[1]; [10],+85.93°
same,Water content,[1]; [10],0.33%
same,Appearance,[1]; [11],Normal
same,Assay,[1]; [11],98.78%
same,Specific Rotation,[1]; [11],+84.63°
same,Water content,[1]; [11],0.53%
same,Appearance,[1]; [12],Normal
same,Specific Rotation,[1]; [12],+86.07°
same,Water content,[1]; [12],0.52%
same,Appearance,[1]; [13],Normal
same,Specific Rotation,[1]; [13],+86.01°
same,Water content,[1]; [13],0.69%
same,Appearance,[1]; [14],Normal
same,Specific Rotation,[1]; [14],+85.11°
same,Water content,[1]; [14],0.19%
same,Appearance,[1]; [15],Normal
same,Assay,[1]; [15],100.62%
same,Specific Rotation,[1]; [15],+86.29°
same,Water content,[1]; [15],0.28%
same,Appearance,[1]; [16],Normal
same,Assay,[1]; [16],99.95%
same,Specific Rotation,[1]; [16],+86.67°
same,Water content,[1]; [16],0.24%
same,Appearance,[1]; [17],Normal
same,Assay,[1]; [17],99.88%
same,Specific Rotation,[1]; [17],+87.58°
same,Water content,[1]; [17],0.18%
same,Appearance,[1]; [18],Normal
same,Assay,[1]; [18],99.43%
same,Specific Rotation,[1]; [18],+84.35°
same,Water content,[1]; [18],0.42%
same,Appearance,[1]; [19],Normal
same,Specific Rotation,[1]; [19],+85.62°
same,Water content,[1]; [19],0.66%
same,Appearance,[1]; [20],Normal
same,Assay,[1]; [20],98.82%
same,Specific Rotation,[1]; [20],+86.73°
same,Water content,[1]; [20],0.70%
same,Appearance,[1]; [21],Normal
same,Specific Rotation,[1]; [21],+86.07°
same,Water content,[1]; [21],0.52%
same,Appearance,[1]; [22],Normal
same,Assay,[1]; [22],99.06%
same,Specific Rotation,[1]; [22],+86.01°
same,Water content,[1]; [22],0.73%
same,Appearance,[1]; [23],Normal
same,Assay,[1]; [23],99.04%
same,Specific Rotation,[1]; [23],+86°
same,Water content,[1]; [23],1.10%
same,Appearance,[1]; [24],Normal
same,Specific Rotation,[1]; [24],+85.16°
same,Water content,[1]; [24],0.27%
same,Appearance,[1]; [25],Normal
same,Specific Rotation,[1]; [25],+85.81°
same,Water content,[1]; [25],0.22%
same,Appearance,[1]; [26],Normal
same,Assay,[1]; [26],98.96%
same,Specific Rotation,[1]; [26],+85.74°
same,Water content,[1]; [26],0.20%
same,Appearance,[1]; [27],Normal
same,Assay,[1]; [27],98.82%
same,Specific Rotation,[1]; [27],+82.67°
same,Water content,[1]; [27],0.49%
same,Appearance,[1]; [28],Normal
same,Assay,[1]; [28],98.75%
same,Specific Rotation,[1]; [28],+86.01°
same,Water content,[1]; [28],0.73%
same,Appearance,[1]; [29],Normal
same,Assay,[1]; [29],98.52%
same,Specific Rotation,[1]; [29],+86°
same,Water content,[1]; [29],1.10%
same,Appearance,[1]; [30],Normal
same,Specific Rotation,[1]; [30],+86.07°
same,Water content,[1]; [30],0.52%
same,stability in storage,"[1]; storage, listed as crystalline TGS of this invention",stable in storage for one year
same,Assay (%),[2]; First day,99.2%
same,PH,[2]; First day,7.90
same,Assay (%),[2]; Fourth day,99.12%
same,PH,[2]; Fourth day,7.62
same,percent assay as well as pH,[2]; over the test period,stable
same,Solubility,[3],water. Slightly
same,mean particle size,Particle size analysis,about 4.2 micron
same,particle size distribution at 90%,Particle size analysis; listed as Example 2,below 10 microns
same,particle size distribution at 90%,Particle size analysis; listed as crystallized product,< 10 microns
same,mean particle size,Particle size analysis; listed as Example 2,4.2 micron
